For test [1], the system named is dopaminergic neuronal cell line. Briefly: High glutamate-induced oxidative stress assay (HGOS). The note with it: Mus musculus; 30 mM glutamate, 16 hrs; read-out: EC50, protection against HGOS cell injury and cell death. The class given is cell-based. An excerpt: Protection against redox stress can be further evaluated in cell culture using high glutamate induced oxidative stress (HGOS) in mouse dopaminergic cell lines. The cytotoxic effect of glutamate is not due to excitotoxicity, as this cell line is devoid of inotropic glutamate receptors. Rather, the glutamate-induced toxicity of dopaminergic cells is associated with an inhibition of cystine transport which subsequently leads to depletion of intracellular glutathione (GSH) levels (Murphy T. H., et al. Neuron 2, 1547-1558, 1989), activation of neuronal 12-lipoxygenase (Li, Y. et al., Neuron 19, 453-463, 1997), increased ROS production (Tan S. et al., J. Cell Biol. 141, 1423-1432, 1998) and elevated intracellular Ca^2+ (Li, Y. et al., see supra). Some molecules were measured for their ability to protect cells against glutamate-induced stress and the assay is detailed in Examples.
This procedure was used to induce high glutamate-induced oxidative stress (HGOS) in a dopaminergic neuronal cell line. Using this assay the potency and efficacy of test articles against HGOS neuronal cell injury and cell death was established in a high throughput manner.
The cells were seeded into 96-well plates at a density of 2000 per well and left to grow for 72 hours in a 33° C. incubator with 5% CO2 in air atmosphere. The passage number of the cells for each assay experiment were no later than p11 in order to minimize experimental variation.
All compounds were dissolved in DMEM-No Glu containing 1 mM glucose, 30 mM glutamate and 1×Pen/Strep. DMEM-No Glu with 1 mM glucose and 1×P/S was used as the negative control, DMEM-No Glucose with 1 mM glucose, […] was used as a positive control and 100 μM Glutathione was added to the positive control as a standard. All of the procedures for this involving the making and dilution of compounds were performed using aseptic conditions and with minimal light.
The plates were removed from the incubator and examined under the microscope for morphological appearance and density. Using an aseptic technique and an 8-channel aspirator the media was carefully removed from the cells and replaced with 200 μl of 1×HBSS. This was done as quickly as possible to prevent the cells drying out. The plates were then placed in the humidified 37° C. incubators of the Biomek 2000 Side Loader. Four plates were washed at a time so as to minimize the time that the cells were sitting in 1×HBSS prior to addition of the compound test solution.
The Beckman Biomek workstations were used to load the compounds and controls from the mother plates onto the cell plates that were prewashed with HBSS under sterile conditions. The plates were incubated in the upper HTS incubator at 37° C. in 5% CO2 for exactly 16 hrs. The following day, using the Beckman Biomek workstations, the plates were removed from the incubator. Using Cell Tracker Addition, the compounds were removed from the plates, washed once with […] of pre-warmed 1×HBSS and then 100 μL of 5 μM Cell Tracker Green was added to each well. The plates were incubated at 37° C. for 30 min to allow the dye to enter the cell and be cleaved by the esterases. After washing the cells twice with prewarmed 1×HBSS, the plates were read with the 485 excitation; 538 emission filter pair on a Fluoroskan.

The target in test [2] is T1, human recombinant 5-lipoxygenase (Homo sapiens, UniProt P09917).
T1 construct: purchased Cayman 60402
T1 sequence (P09917 1-674): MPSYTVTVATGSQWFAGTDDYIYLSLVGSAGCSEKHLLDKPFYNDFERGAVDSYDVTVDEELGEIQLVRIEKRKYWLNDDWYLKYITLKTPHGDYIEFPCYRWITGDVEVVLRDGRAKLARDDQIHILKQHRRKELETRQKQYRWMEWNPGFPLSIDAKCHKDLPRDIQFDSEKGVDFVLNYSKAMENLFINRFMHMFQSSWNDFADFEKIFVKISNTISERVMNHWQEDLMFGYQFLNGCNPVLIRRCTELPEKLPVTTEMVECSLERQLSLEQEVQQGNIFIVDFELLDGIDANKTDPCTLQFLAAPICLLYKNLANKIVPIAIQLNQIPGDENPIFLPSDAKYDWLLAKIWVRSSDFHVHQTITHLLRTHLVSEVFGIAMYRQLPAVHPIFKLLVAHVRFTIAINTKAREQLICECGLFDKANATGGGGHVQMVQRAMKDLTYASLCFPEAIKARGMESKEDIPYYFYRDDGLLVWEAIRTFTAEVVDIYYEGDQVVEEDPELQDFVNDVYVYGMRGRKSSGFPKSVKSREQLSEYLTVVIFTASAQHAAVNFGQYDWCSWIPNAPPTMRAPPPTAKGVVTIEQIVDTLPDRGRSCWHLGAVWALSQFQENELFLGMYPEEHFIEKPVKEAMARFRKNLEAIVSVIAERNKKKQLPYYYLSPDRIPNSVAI
Briefly: 5-Lipoxygenase enzyme assay. It counts as biochemical. The note with it: 70 μM arachidonic acid, pH 7.4. As for the experimental part:
This procedure was used for measuring the enzymatic activity of human recombinant 5-lipoxygenase using a […] method based on the ferric oxidation of xylenol orange.
Human recombinant 5-lipoxygenase (Cayman Cat # 60402) was used in this assay. The test compound and/or vehicle was added to 0.5U 5-lipoxygenase in 50 mM Tris-HCl buffer, pH 7.4. The reaction was initiated by addition of 70 μM arachidonic acid in Tris-HCl buffer, pH 7.4, and terminated after a 10 minute incubation at room temperature by addition of FOX reagent (25 mM sulphuric acid, 100 μM xylenol orange, 100 μM iron (II) sulphate, methanol:water 9:1). The yellow color of acidified xylenol orange was converted to a blue color by the lipid hydroperoxide-mediated oxidation of Fe^2+ ions and the interaction of the resulting Fe^3+ ions with the dye. The complex was allowed to form during a 1 hour incubation at room temperature with shaking. Absorbance of the Fe^3+ complex was then measured at […] using a spectrophotometer.
Negative controls contained enzyme during the incubation step but substrate was not added until after the FOX reagent.
Compounds were screened at 5 concentrations in triplicate starting at 10 μM

The test system of test [3] is LTB4 production in heparinized whole blood. The experiment in a line: Inhibition of LTB4 production in blood. The note with it: 20 μM A23187, read-out: EC50, protection against LTB4. It counts as cell-based, rat or mouse. The procedure: The blood was collected in heparinized tubes or syringes to prevent clotting. Heparin was at 20 USP U/ml. About 3-5 ml of blood was collected per rat and about 0.5-0.75 ml per mouse. This assay required 200 μl/data point, therefore a 96 well plate requires 20 ml.
The Calcium ionophore A23187 was prepared as a 10 mM stock solution in DMSO and the test agent is prepared in DMSO so that <1 μl DMSO will be added to the well
200 μl blood per well were added in a round bottom 96 well clear plastic 96 well plate followed by the test agent. After 10 minutes incubation at 37° C., 5 μl of Calcium ionophore A23187 for a final concentration of 20 μM were added and mixed, and further incubated for 30 min. After 1000×g centrifugation to pellet blood cells, 20 μl plasma was carefully removed.
20 μl plasma were added to 80 μl methanol to precipitate protein and mixed. This was further incubated 10 min. at room temperature and centrifuged at 1000×g to pellet protein.
Following manufacturer's instructions, the commercially available EIA kit was used to subsequently measure the LTB4 production in the samples. The LTB4 levels produced in the vehicle control sample were then compared to those in which the test compound had been added. From this a percent inhibition of LTB4 production by each concentration of test compound was calculated and the IC50 for inhibition of LTB4 production for each test compound was determined.

The test system of test [4] is LTB4 release from MPRO cell line. The experiment in a line: LTB4-cell assay. It counts as cell-based. The note with it: Mus musculus; differentiated MPRO cells, 1 μM A23187, 1 hour; read-out: EC50, inhibition of LTB4. The procedure: This procedure was used for measuring the release of the leukotriene LTB4 from a neutrophil cell line using a competitive ELISA technique.
A mouse promyelocytic cell line (MPRO) was used in this assay. These cells are committed immature neutrophils that can be differentiated into mature neutrophils by treatment with 10 μM all-trans retinoic acid for 72 hours
Following 72 hours of differentiation, cells were stimulated with 1 μM of a calcium ionophore (A23187) in the presence or absence of test compound or vehicle for 1 hour at 37° C. After this time, supernatant was removed from the cells and the LTB4 levels were determined following manufacturer's instructions, using a Leukotriene B4 EIA kit from Cayman (Cat # 520111)
The negative controls were media samples from differentiated but unstimulated cells.
The compounds were screened at 5 concentrations in quadruplicate starting at 10 μM

For test [5], the system named is ELAM (E-selectin) expression in endothelial cells. Briefly: Cell-ELAM assay. It counts as cell-based. The note with it: 10 μg/ml LPS and 100 pg/ml IL-1β, 6 hours. The text has this: In vitro cell-based assays for inflammation are well known in the art, for example e-selectin (also named Endothelial Leukocyte Adhesion Molecule or ELAM) or C-reactive protein (CRP). The ELAM assay measures in vitro activity of the test compounds in reducing expression of ELAM in activated endothelial cells. Briefly, endothelial cells are […] by adding known activators such as lipopolysaccharides, TNF or IL-1, alone or in some combination. Activated cells produce ELAM, which can be measured using, for example, an E-selectin monoclonal antibody-based ELISA assay. Similarly the CRP assay measures in vitro activity of test compounds in reducing expression of CRP in Human Hep3B epithelial cells. The activated cells produce CRP, which can be measured with a CRP ELISA assay.
Endothelial-Leukocyte Adhesion Molecule (ELAM), also known as E-selectin, was expressed on the surface of endothelial cells. In this assay, lipopolysaccharide (LPS) and IL-1β were used to stimulate the expression of ELAM; test agents were tested for their abilities to reduce this expression, in accordance with studies showing that reduction of leukocyte adhesion to endothelial cell surface was associated with decreased cellular damage (e.g., Takada, M., Et al., Transplantation 64: 1520-25, 1997; Steinberg, J. B., et al., J. Heart Lung Trans. 13:306-313, 1994).
Endothelial cells may be selected from any of a number of sources and cultured according to methods known in the art; including, for example, coronary artery endothelial cells, human brain microvascular endothelial cells (HBMEC; Hess, D. C., et al., Neurosci. Lett. 213(1): 37-40, 1996), or lung endothelial cells. Cells were conveniently cultured in 96-well plates. Cells were stimulated by adding a solution to each well containing 10 μg/ml LPS and 100 pg/ml IL-1β for 6 hours in the presence of test agent (specific concentrations and time may be adjusted depending on the cell type) Treatment buffer was removed and replaced with pre-warmed Fixing Solution® (100 μl/well) for 25 minutes at room temperature. Cells were then washed 3×, then incubated with Blocking Buffer (PBS+2% FBS) for 25 minutes at room temperature. Blocking Buffer containing Monoclonal E-Selectin Antibody (1:750, Sigma Catalog # S-9555) was added to each well. Plates were sealed and stored at 4° overnight. Plates were washed 4× with 160 μL Blocking Buffer per well. Second Antibody-HRP diluted 1:5000 in Blocking Buffer was then added (100 μL/well), and plates were incubated at room temperature (protected from light) for two hours. Plates were then washed 4× with Blocking Buffer before addition of 100 μL of ABTS Substrate solution at room temperature (Zymed, Catalog # 00-2024). Wells were allowed to develop for 35 minutes, before measurement at 402 nm in a Fluoroskan® Reader with shake program for 10 seconds. Positive results were recorded as a decrease in ELAM concentration in tested wells, as compared to control wells.

In general, EC50 refers to the concentration needed to bring the measured effect to its halfway point. What is called IC50 is the concentration that inhibits the measured activity by half. As for `CC1(C)CCc2cc(O)c3c(c2O1)C1C=CC3C1` (stereo not shown) [2,2-Dimethyl-3,4,7,10-tetrahydro-7,10-methano-2H-benzo[h]chromen-6-ol], the EC50 in test [1] is at most 1 µM; in test [3], at most 10 µM; in test [4], at most 5 µM. The IC50 in test [2] was at most 5 µM.

For `CC(C)=CCc1c(O)c2c(c3c1CCC(C)(C)O3)C1C=CC2CC1` (stereo not shown) [2,2-Dimethyl-5-(3-methyl-but-2-enyl)-3,4,7,10-tetrahydro-7,10-ethano-2H-benzo[h]chromen-6-ol], the EC50 in test [1] was at most 1 µM; in test [5], at most 30 µM. For the same compound, in test [2], the IC50 is at most 5 µM.

In the case of `CC1(CCCl)CCc2cc(O)c3c(c2O1)C1CCC3C1` (stereo not shown) [2-(2-Chloro-ethyl)-2-methyl-3,4,7,8,9,10-hexahydro-7,10-methano-2H-benzo[h]chromen-6-ol], the results for the EC50 in test [1] and in test [5] were at most 1 µM and at most 30 µM, respectively.

As for `Cc1c(O)c2c(c3c1CCC(C)(CCCCl)O3)C1CCC2CC1` (stereo not shown) [2-(3-Chloro-propyl)-2,5-dimethyl-3,4,7,8,9,10-hexahydro-7,10-ethano-2H-benzo[h]chromen-6-ol], the EC50 is at most 1 µM in test [1] and at most 10 µM in test [3]. For the same compound, the IC50 in test [2] was at most 5 µM.

Consider `CC1(CCCCl)CCc2cc(O)c3c(c2O1)C1CCC3CC1` (stereo not shown) [2-(3-Chloro-propyl)-2-methyl-3,4,7,8,9,10-hexahydro-7,10-ethano-2H-benzo[h]chromen-6-ol], for which the EC50 was at most 1 µM in test [1], at most 10 µM in test [3] and at most 5 µM in test [4].

For the compound `CC1(CCCSc2nc3ccccc3s2)CCc2cc(O)c3c(c2O1)C1CCC3C1` (stereo not shown) [2-[3-(Benzothiazol-2-ylsulfanyl)-propyl]-2-methyl-3,4,7,8,9,10-hexahydro-7,10-methano-2H-benzo[h]chromen-6-ol], the values for the EC50 in test [1] and in test [5] were at most 1 µM and at most 30 µM, respectively.

Turning to `CC1(C)CCc2c(Br)c(O)c3c(c2O1)C1CCC3CC1` [5-Bromo-2,2-dimethyl-3,4,7,8,9,10-hexahydro-7,10-ethano-2H-benzo[h]chromen-6-ol], the half-maximal effective concentration (EC50) in test [1] is at most 1 µM; in test [3], at most 10 µM. Further, the IC50 in test [2] is at most 5 µM.

As for `CC1(C)CCc2c(Br)c(O)c3c(c2O1)C1CCC3C1` (stereo not shown) [5-Bromo-2,2-dimethyl-3,4,7,8,9,10-hexahydro-7,10-methano-2H-benzo[h]chromen-6-ol], the EC50 in test [1] is at most 1 µM; in test [5], at most 30 µM.

For the origin of these results see US7875607B2, “7,8-bicycloakyl-chroman derivatives” (Ampere Life Sciences, Inc., priority 2004, dated 2011).
